The record followed here is PubChem BioAssay AID1671331.

Molecules are shown by their SMILES. pIC50: −log10 of the molar value.

The target in the assay is Serine/threonine-protein kinase Nek6 (Homo sapiens) (UniProt Q9HC98). As to the kind of experiment: inhibition of NEK6 serine/threonine kinase activity – biochemical, Z'-LYTE FRET, direct format, recombinant human, dose response (AID 1671331).

Usually pIC50 stands for the IC50 on a negative log10 scale, so that one unit is a factor of ten.

Sequence of Serine/threonine-protein kinase Nek6 (Homo sapiens) (Q9HC98 whole entry, looked up): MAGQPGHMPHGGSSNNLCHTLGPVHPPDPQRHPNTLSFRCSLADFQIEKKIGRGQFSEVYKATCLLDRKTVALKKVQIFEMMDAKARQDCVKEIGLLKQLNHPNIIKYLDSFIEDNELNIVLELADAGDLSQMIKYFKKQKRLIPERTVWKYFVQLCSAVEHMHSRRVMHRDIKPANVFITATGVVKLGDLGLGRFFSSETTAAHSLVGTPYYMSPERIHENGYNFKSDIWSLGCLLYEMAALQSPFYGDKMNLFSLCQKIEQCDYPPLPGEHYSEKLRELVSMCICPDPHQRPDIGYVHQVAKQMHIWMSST

`CN1C(=O)C2(Cc3cn(C45CC67SSC(CO)(C(=O)N6C4Nc4ccccc45)N(C)C7=O)c4ccccc34)SSC1(CO)C(=O)N2C` (stereo unspecified): the pIC50 was 7.23.
